# From patent US8735443B2, “Method of treating diabetes-related vascular complications” (Kuwait University, priority 2008, dated 2014)
# Columns and labels:
# [1] = Cell viability after hydrogen peroxide (Cell Counting Kit-8), diabetic fibroblasts; assay type: cell-based, rat; details: female, Coto Kakizaki (diabetic), rat, primary dermal fibroblasts from diabetic rats (DFs), DFs, 16 hours, read-out: loss in cell viability
# Description: To determine the effect of α-lipoic acid on isolated cells from normal and diabetic rats, primary rat fibroblasts were derived from dorsal skin biopsies performed on four diabetic Coto Kakizaki rats (DFs) and four age-matched (12-14 months) and sex-matched (female) Wistar control rats (CFs). After sterilization in povidine solution, the rat skin was washed in sterile water and rinsed in 70% ethanol in phosphate-buffered saline (PBS). The epidermis and dermis were separated following overnight incubation in 0.25% Trypsin/EDTA at 4° C. Samples were washed, diced and digested for thirty minutes at 37° C. in collagenase type I (250 U/ml) dissolved in Dulbecco's modified Eagle medium (DMEM; Invitrogen) containing penicillin (100 U/ml), 2 mM L-glutamine and 26 mM HEPES. After collagenase treatment, the cells were dislodged, centrifuged and resuspended in medium supplemented with 10% fetal bovine serum. The cells were grown under standard conditions, and the medium was changed every three to four days. Control and diabetic fibroblasts were grown under normo-glycemic conditions (5.5 mM glucose) and used in experiments at passage 3 to 5.
# Fibroblasts were seeded at 1×10^4 cells/well on a 96-well plate. After a 24 hour incubation period, the cells were exposed to various concentrations of HP in serum-free medium at 37° C. for 2 hours [lactate dehydrogenase (LDH), a marker for necrotic cell death], or for 16 hours (cell viability). Quantification of cell viability was assessed using a Cell Counting Kit-8 (Dojindo, Kumamoto, Japan). The values obtained were normalized to the vehicle-treated cells. To measure the rate of necrotic cell death, an LDH release assay was performed using a CytoTox-ONE Homogeneous Membrane Integrity Assay kit (Promega). Expression of Nrf2 was inhibited by small-interfering RNA (siRNA) oligonucleotides. The sequences were designed and synthesized by Qiagen. The best silencing efficiency was obtained by incubating 2.0×10^5 cells/well in a 6-well plate with complexes formed by 5 nM siRNA (1 μl) and 9 μL of HiPerfect transfection reagent (Qiagen) dissolved in 90 μl medium, according to the manufacturer's instructions. The transfection was achieved by adding 0.9 ml of medium to the seeded cells followed by 100 μl of siRNA/HiPerfect complex. Knock-out efficiency was verified by real-time PCR and Western blot. Twenty-four hours later, 1 ml of fresh medium was added; 48 hr after transfection the cells were exposed to either vehicle or lipoic acid at a concentration of 500 μM.
# rat aortic rings = assay: Acetylcholine-induced endothelium dependent relaxation of aortic rings in organ chamber; assay type: in vivo; details: diabetic arteries; apocynin 3×10^−4 mol/l, Tiron 10 mmol/l
# Experimental: In the experiments, with regard to the determination of endothelium dependent relaxation (EDR) in the aorta, EDR in response to various concentrations of acetylcholine (Ach) (10^−9 to 10^−6 mol/l) was assessed in norepinephrine (10^−7 mol/l) preconstructed rat aortic rings using an organ chamber bath. The effects of the NAD(P)H oxidase inhibitor apocynin (3×10^−4 mol/l) and the O2^− scavenger Tiron (10 mmol/l) on Ach-induced responses of diabetic arteries were also considered.
# aortic tissue = assay: Aortic superoxide production, lucigenin-enhanced chemiluminescence; assay type: in vivo, rat; details: inhibitor added 60 min before; diphenylene iodonium 0.1 mM, apocynin 3 mM
# Experimental: In the study, with regard to measurement of vascular superoxide anion formation, O2^− concentration in aortic tissue was determined using a lucigenin-enhanced chemiluminescence method, and the resulting data were further confirmed by a cytochrome c-based technique. Segments of the thoracic aorta were placed into 2 ml Krebs-Henseleit buffer (KHB, pH 7.4), and prewarmed to 37° C. for one hour. Immediately before measurement, rings were transferred to scintillation vials containing KHB with 5 μmol/L lucigenin and the O2^− generated chemiluminescence was recorded for five minutes with a scintillation counter. The amount of O2^− produced was quantified using a standard curve of O2^− generation by xanthine/xanthine oxidase and the data are expressed as nmol per min, per mg, of wet weight. In some experiments, vessels were denuded of endothelium by gentle rubbing of the luminal surface, whereas in others, N^ω-nitro-L-arginine methyl ester (L-NAME) 0.1 mM, diphenylene iodonium 0.1 mM, or apocynin 3 mM were added 60 min before determining O2^− generation.
# NAD(P)H oxidase = NAD(P)H oxidase activity in aortic homogenates (lucigenin photoemission); assay type: biochemical, rat; details: inhibitor added to tissue homogenate
# Experimental: Determination of NAD(P)H oxidase activity in the aorta was determined based on superoxide induced lucigenin photoemission. Enzyme assays were carried out in a final volume of 1 ml. containing (in mM) 50 phosphate buffer; pH 7.0, 1 EGTA, 150 sucrose, 0.5 lucigenin, 0.1 NAD(P)H and tissue homogenate. Enzyme reactions were initiated with the addition of lucigenin. Photoemission, expressed in terms of relative light units (RLU), was measured every 5 min. using a luminometer. All assays were carried out in the dark at room temperature.
# cultured arteries = assay: Cultured arteries of non-diabetic control animals exposed to TNF-α; set-up: species or system rat; details: arteries of non-diabetic control animals exposed to TNF-α
compound,measurement,setting,value
"OO [HP, hydrogen peroxide]","cytotoxicity at 16 h, 37.5 uM",[1]; 37.5 uM HP,17%
same,"cytotoxicity at 16 h, 50 uM",[1]; 50 uM HP,55%
same,"cytotoxicity at 16 h, 75 uM",[1]; 75 uM HP,78%
COc1cc(C(C)=O)ccc1O [apocynin],Ach-induced relaxation in diabetic arteries,rat aortic rings,improved
same,O2− production of aorta of GK diabetic rats,aortic tissue,inhibited
"O=S(=O)(O)c1cc(O)c(O)c(S(=O)(=O)O)c1 [tiron, Tiron]",Ach-induced relaxation in diabetic arteries,rat aortic rings,improved
c1ccc2c(c1)[I+]c1ccccc1-2 [diphenyleneiodonium],O2− production of aorta of GK diabetic rats,aortic tissue,inhibited
same,reduction of production of O2− in the homogenate,NAD(P)H oxidase,> 95%
TNF-α,Ach-induced vasorelaxation,cultured arteries,impaired
same,caspase 3/7 activity,cultured arteries,elevated
same,levels of DNA fragmentation,cultured arteries,elevated
same,rate of O2− generation,cultured arteries,elevated
